Measurements as given in patent US20250231185A1, “Coronavirus T Cell Epitopes, Megapools and Uses Thereof” (La Jolla Institute for Immunology, priority 2021, published 2025).

tested on: CD8+ T cells; assay: Meta-analysis of published SARS-CoV-2 CD8 T cell epitope data curated in the IEDB (25 studies); type: cell-based, human; details: CD8-restricted SARS-CoV-2 epitopes; Yes = recognized by 3 or more donors/different studies

Substance | Dominant
1296 (KIADYNYKL) [compound 1296] | Yes (more dominant epitopes are defined by being recognized by 3 or more donors/different studies)
1297 (KLPDDFTGCV) [compound 1297] | Yes (more dominant epitopes are defined by being recognized by 3 or more donors/different studies)
1263 (YYVGYLQPRTF) [compound 1263] | Yes (more dominant epitopes are defined by being recognized by 3 or more donors/different studies)
1249 (TPINLVRDL) [compound 1249] | Yes (more dominant epitopes are defined by being recognized by 3 or more donors/different studies)
1119 (ALSKGVHFV) [compound 1119] | Yes (more dominant epitopes are defined by being recognized by 3 or more donors/different studies)
1286 (RISNCVADY) [compound 1286] | Yes (more dominant epitopes are defined by being recognized by 3 or more donors/different studies)
1245 (FVFKNIDGY) [compound 1245] | Yes (more dominant epitopes are defined by being recognized by 3 or more donors/different studies)

same assay, conditions: CD8S (D) Megapool, antigen S; dominant = recognized in 3 or more donors/studies

Substance | Dominant
1497 (SIIAYTMSL) [compound 1497] | Yes (more dominant epitopes are defined by being recognized by 3 or more donors/different studies)
1513 (APHGVVFLHV) [compound 1513] | Yes (more dominant epitopes are defined by being recognized by 3 or more donors/different studies)
1487 (NLDSKVGGNY) [compound 1487] | Yes (more dominant epitopes are defined by being recognized by 3 or more donors/different studies)
1495 (SVASQSIIAY) [compound 1495] | Yes (more dominant epitopes are defined by being recognized by 3 or more donors/different studies)
1499 (TEILPVSMTK) [compound 1499] | Yes (more dominant epitopes are defined by being recognized by 3 or more donors/different studies)
1484 (KCYGVSPTK) [compound 1484] | Yes (more dominant epitopes are defined by being recognized by 3 or more donors/different studies)
1480 (WTAGAAAYY) [compound 1480] | Yes (more dominant epitopes are defined by being recognized by 3 or more donors/different studies)
1478 (TPINLVRDL) [compound 1478] | Yes (more dominant epitopes are defined by being recognized by 3 or more donors/different studies)
1474 (TLDSKTQSL) [compound 1474] | Yes (more dominant epitopes are defined by being recognized by 3 or more donors/different studies)
1473 (TEKSNIIRGW) [compound 1473] | Yes (more dominant epitopes are defined by being recognized by 3 or more donors/different studies)

same assay, conditions: CD8 epitopes; Yes = recognized by 3 or more donors/different studies

Substance | Dominant
437 (NRFLYIIKL) [compound 437] | Yes (more dominant epitopes are defined by being recognized by 3 or more donors/different studies)
429 (LQFAYANRNRFLY) [compound 429] | Yes (more dominant epitopes are defined by being recognized by 3 or more donors/different studies)
455 (RLFARTRSMW) [compound 455] | Yes (more dominant epitopes are defined by being recognized by 3 or more donors/different studies)

same assay, conditions: SARS-CoV-2-derived CD8 epitopes; dominant = recognized by 3 or more donors/different studies

Substance | Dominant
841 (FLLNKEMYL) [compound 841] | Yes (more dominant epitopes are defined by being recognized by 3 or more donors/different studies)
818 (RPDTRYVL) [compound 818] | Yes (more dominant epitopes are defined by being recognized by 3 or more donors/different studies)

tested on: CD8+ T cells; assay: not given; details: CD8R (D) megapool epitopes; dominant = recognized by 3 or more donors/different studies; cited from earlier work

Substance | Dominant
1711 (VLSEARQHL) [compound 1711] | Yes (more dominant epitopes are defined by being recognized by 3 or more donors/different studies)
1709 (LPAADLDDF) [compound 1709] | Yes (more dominant epitopes are defined by being recognized by 3 or more donors/different studies)
1761 (FGDDTVIEV) [compound 1761] | Yes (more dominant epitopes are defined by being recognized by 3 or more donors/different studies)
1712 (TVLSFCAFAV) [compound 1712] | Yes (more dominant epitopes are defined by being recognized by 3 or more donors/different studies)
1762 (PTDNYITTY) [compound 1762] | Yes (more dominant epitopes are defined by being recognized by 3 or more donors/different studies)
1771 (QLMCQPILLL) [compound 1771] | Yes (more dominant epitopes are defined by being recognized by 3 or more donors/different studies)
1769 (ILFTRFFYV) [compound 1769] | Yes (more dominant epitopes are defined by being recognized by 3 or more donors/different studies)
1754 (GVAMPNLYK) [compound 1754] | Yes (more dominant epitopes are defined by being recognized by 3 or more donors/different studies)
1785 (FLLPSLATV) [compound 1785] | Yes (more dominant epitopes are defined by being recognized by 3 or more donors/different studies)
1714 (YTMADLVYAL) [compound 1714] | Yes (more dominant epitopes are defined by being recognized by 3 or more donors/different studies)
1741 (VLWAHGFEL) [compound 1741] | Yes (more dominant epitopes are defined by being recognized by 3 or more donors/different studies)

same assay, conditions: CD8RE megapool peptides (non-spike SARS-CoV-2 antigens); dominant epitope Yes/No; cited from earlier work

Substance | Dominant
2972 (SSNVANYQK) [compound 2972] | Yes (more dominant epitopes are defined by being recognized by 3 or more donors/different studies)
3006 (QLMCQPILLL) [compound 3006] | Yes (more dominant epitopes are defined by being recognized by 3 or more donors/different studies)
3015 (FLNGSCGSV) [compound 3015] | Yes (more dominant epitopes are defined by being recognized by 3 or more donors/different studies)
3013 (TPKYKFVRI) [compound 3013] | Yes (more dominant epitopes are defined by being recognized by 3 or more donors/different studies)
3042 (LLYDANYFL) [compound 3042] | Yes (more dominant epitopes are defined by being recognized by 3 or more donors/different studies)
3012 (TSEDMLNPNY) [compound 3012] | Yes (more dominant epitopes are defined by being recognized by 3 or more donors/different studies)
2914 (ATSRTLSYYK) [compound 2914] | Yes (more dominant epitopes are defined by being recognized by 3 or more donors/different studies)
2905 (FLFLTWICL) [compound 2905] | Yes (more dominant epitopes are defined by being recognized by 3 or more donors/different studies)
3046 (QLRARSVSPK) [compound 3046] | Yes (more dominant epitopes are defined by being recognized by 3 or more donors/different studies)
3045 (HLVDFQVTI) [compound 3045] | Yes (more dominant epitopes are defined by being recognized by 3 or more donors/different studies)

same assay, conditions: SARS-CoV-2-derived CD8 epitopes; dominant = recognized by 3 or more donors/different studies; cited from earlier work

Substance | Dominant
549 (AYKTFPPTEPK) [compound 549] | Yes (more dominant epitopes are defined by being recognized by 3 or more donors/different studies)
547 (ILLNKHIDA) [compound 547] | Yes (more dominant epitopes are defined by being recognized by 3 or more donors/different studies)
518 (LALLLLDRL) [compound 518] | Yes (more dominant epitopes are defined by being recognized by 3 or more donors/different studies)
566 (KTIQPRVEK) [compound 566] | Yes (more dominant epitopes are defined by being recognized by 3 or more donors/different studies)
513 (NPANNAAIVL) [compound 513] | Yes (more dominant epitopes are defined by being recognized by 3 or more donors/different studies)
670 (YLATALLTL) [compound 670] | Yes (more dominant epitopes are defined by being recognized by 3 or more donors/different studies)

same assay, conditions: SARS-CoV-2 Ag S; T cell type recognizing the epitope; cited from earlier work

Substance | Restriction
1454 (NESLIDLQEL) [compound 1454] | CD8
1320 (QPYRVVVLSF) [compound 1320] | CD8
1323 (ELLHAPATV) [compound 1323] | CD8
1344 (YECDIPIGAGI) [compound 1344] | CD8
1457 (QELGKYEQY) [compound 1457] | CD8
1378 (SFIEDLLF) [compound 1378] | CD8

same assay, conditions: T cell subset (CD4 or CD8) recognizing the SARS-CoV-2-derived epitope; cited from earlier work

Substance | Restriction
549 (AYKTFPPTEPK) [compound 549] | CD8
547 (ILLNKHIDA) [compound 547] | CD8
617 (LYDKLVSSF) [compound 617] | CD8
605 (NSFSGYLKL) [compound 605] | CD8
655 (MSMTYGQQF) [compound 655] | CD8
697 (ASRELKVTF) [compound 697] | CD8
518 (LALLLLDRL) [compound 518] | CD8
566 (KTIQPRVEK) [compound 566] | CD8
567 (GFMGRIRSV) [compound 567] | CD8
664 (YMSALNHTK) [compound 664] | CD8
639 (SLINTLNDL) [compound 639] | CD8
611 (YENFNQHEV) [compound 611] | CD8
513 (NPANNAAIVL) [compound 513] | CD8
587 (FELDERIDKV) [compound 587] | CD8
670 (YLATALLTL) [compound 670] | CD8
550 (YKTFPPTEPK) [compound 550] | CD8

same assay, conditions: T cell type (CD4 or CD8) recognizing the SARS-CoV-2 epitope; cited from earlier work

Substance | Restriction
973 (IPTITQMNL) [compound 973] | CD8
1030 (APTLVPQEHYV) [compound 1030] | CD8
1054 (PFMIDVQQW) [compound 1054] | CD8
1075 (GRVDGQVDL) [compound 1075] | CD8
953 (VVSTGYHFR) [compound 953] | CD8
974 (TITQMNLKY) [compound 974] | CD8
